Measured values reported in ChEMBL document CHEMBL3867474, “Discovery of novel pyrrolidineoxy-substituted heteroaromatics as potent and selective PI3K delta inhibitors with improved physicochemical properties” (Bioorg Med Chem Lett, 2016).
≈ marks a conversion by molar mass, not a printed value.

How the values were obtained:
[1] = molecular target: T1, Phosphatidylinositol 4,5-bisphosphate 3-kinase catalytic subunit delta isoform (Homo sapiens, UniProt O00329); assay: Inhibition of PI3K-delta (unknown origin) by KinaseGlo assay
T1 sequence (O00329 whole entry): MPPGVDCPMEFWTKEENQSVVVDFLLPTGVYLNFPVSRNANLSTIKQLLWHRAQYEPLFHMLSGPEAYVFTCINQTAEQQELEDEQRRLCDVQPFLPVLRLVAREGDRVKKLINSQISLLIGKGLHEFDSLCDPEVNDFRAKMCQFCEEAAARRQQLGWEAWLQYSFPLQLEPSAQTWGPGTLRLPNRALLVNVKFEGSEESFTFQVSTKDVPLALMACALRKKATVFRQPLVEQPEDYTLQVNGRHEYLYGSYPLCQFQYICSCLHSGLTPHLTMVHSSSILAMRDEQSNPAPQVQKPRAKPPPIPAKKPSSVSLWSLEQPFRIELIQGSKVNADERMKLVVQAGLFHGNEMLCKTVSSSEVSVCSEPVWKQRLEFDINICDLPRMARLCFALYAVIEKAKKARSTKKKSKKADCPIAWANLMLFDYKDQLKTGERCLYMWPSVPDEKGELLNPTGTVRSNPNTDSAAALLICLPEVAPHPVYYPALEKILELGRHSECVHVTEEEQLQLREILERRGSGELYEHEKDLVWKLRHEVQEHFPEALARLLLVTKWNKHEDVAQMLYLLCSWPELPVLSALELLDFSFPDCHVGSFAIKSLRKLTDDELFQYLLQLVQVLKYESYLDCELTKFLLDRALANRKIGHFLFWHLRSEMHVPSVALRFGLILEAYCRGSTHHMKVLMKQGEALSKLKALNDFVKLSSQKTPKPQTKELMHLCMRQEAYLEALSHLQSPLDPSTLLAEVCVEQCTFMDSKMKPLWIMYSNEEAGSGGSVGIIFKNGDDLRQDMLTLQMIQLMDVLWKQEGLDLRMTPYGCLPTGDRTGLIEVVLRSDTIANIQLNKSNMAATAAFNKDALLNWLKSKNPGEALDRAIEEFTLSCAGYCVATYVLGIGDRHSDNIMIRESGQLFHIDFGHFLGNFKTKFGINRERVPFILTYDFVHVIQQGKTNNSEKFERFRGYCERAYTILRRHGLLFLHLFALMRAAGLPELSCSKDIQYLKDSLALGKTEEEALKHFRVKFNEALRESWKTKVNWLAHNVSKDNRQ

[2] = molecular target: T2, Phosphatidylinositol 4,5-bisphosphate 3-kinase catalytic subunit beta isoform (Homo sapiens, UniProt P42338); assay: Inhibition of PI3K-beta (unknown origin) by KinaseGlo assay
[3] = molecular target: T1, Phosphatidylinositol 4,5-bisphosphate 3-kinase catalytic subunit delta isoform; assay: Inhibition of myristoylated PI3K-delta (unknown origin) overexpressed in Rat1 cells assessed as inhibition of Akt phosphorylation; type: cell-based
[4] = molecular target: T3, Phosphatidylinositol 4,5-bisphosphate 3-kinase catalytic subunit alpha isoform (Homo sapiens, UniProt P42336); assay: Inhibition of PI3K-alpha (unknown origin) by KinaseGlo assay
[5] = Solubility of the compound at pH 6.8 by high-throughput equilibrium analysis; type: physicochemical; conditions: buffer
[6] = molecular target: T3, Phosphatidylinositol 4,5-bisphosphate 3-kinase catalytic subunit alpha isoform; assay: Inhibition of myristoylated PI3K-alpha (unknown origin) overexpressed in Rat1 cells assessed as inhibition of Akt phosphorylation; type: cell-based
[7] = molecular target: T4, Phosphatidylinositol 4,5-bisphosphate 3-kinase catalytic subunit delta isoform (Homo sapiens) (UniProt O00329); assay: Selectivity ratio of IC50 for myristoylated PI3K-delta (unknown origin) overexpressed in Rat1 cells to IC50 for PI3K-delta (unknown origin); type: cell-based
T4 sequence (whole entry): T1 sequence (O00329 whole entry)

[8] = molecular target: T2, Phosphatidylinositol 4,5-bisphosphate 3-kinase catalytic subunit beta isoform; assay: Inhibition of myristoylated PI3K-beta (unknown origin) overexpressed in Rat1 cells assessed as inhibition of Akt phosphorylation; type: cell-based
[9] = molecular target: Phosphatidylinositol 4,5-bisphosphate 3-kinase catalytic subunit gamma isoform (Homo sapiens, UniProt P48736); assay: Inhibition of PI3K-gamma (unknown origin) by KinaseGlo assay
[10] = Lipophilicity, log P of the compound by high-throughput assay; type: physicochemical; conditions: octanol/water
Rat1 = assay: Selectivity ratio of IC50 for PI3K-delta in rat whole blood to IC50 for myristoylated PI3K-delta (unknown origin) overexpressed in Rat1 cells; type: cell-based
[11] = molecular target: T5, Phosphatidylinositol 4,5-bisphosphate 3-kinase catalytic subunit delta isoform (Mus musculus, UniProt O35904); assay: Inhibition of PI3K-delta in mouse splenocytes assessed as inhibition anti-IgM induced CD86 expression; type: cell-based
T5 sequence (O35904 whole entry): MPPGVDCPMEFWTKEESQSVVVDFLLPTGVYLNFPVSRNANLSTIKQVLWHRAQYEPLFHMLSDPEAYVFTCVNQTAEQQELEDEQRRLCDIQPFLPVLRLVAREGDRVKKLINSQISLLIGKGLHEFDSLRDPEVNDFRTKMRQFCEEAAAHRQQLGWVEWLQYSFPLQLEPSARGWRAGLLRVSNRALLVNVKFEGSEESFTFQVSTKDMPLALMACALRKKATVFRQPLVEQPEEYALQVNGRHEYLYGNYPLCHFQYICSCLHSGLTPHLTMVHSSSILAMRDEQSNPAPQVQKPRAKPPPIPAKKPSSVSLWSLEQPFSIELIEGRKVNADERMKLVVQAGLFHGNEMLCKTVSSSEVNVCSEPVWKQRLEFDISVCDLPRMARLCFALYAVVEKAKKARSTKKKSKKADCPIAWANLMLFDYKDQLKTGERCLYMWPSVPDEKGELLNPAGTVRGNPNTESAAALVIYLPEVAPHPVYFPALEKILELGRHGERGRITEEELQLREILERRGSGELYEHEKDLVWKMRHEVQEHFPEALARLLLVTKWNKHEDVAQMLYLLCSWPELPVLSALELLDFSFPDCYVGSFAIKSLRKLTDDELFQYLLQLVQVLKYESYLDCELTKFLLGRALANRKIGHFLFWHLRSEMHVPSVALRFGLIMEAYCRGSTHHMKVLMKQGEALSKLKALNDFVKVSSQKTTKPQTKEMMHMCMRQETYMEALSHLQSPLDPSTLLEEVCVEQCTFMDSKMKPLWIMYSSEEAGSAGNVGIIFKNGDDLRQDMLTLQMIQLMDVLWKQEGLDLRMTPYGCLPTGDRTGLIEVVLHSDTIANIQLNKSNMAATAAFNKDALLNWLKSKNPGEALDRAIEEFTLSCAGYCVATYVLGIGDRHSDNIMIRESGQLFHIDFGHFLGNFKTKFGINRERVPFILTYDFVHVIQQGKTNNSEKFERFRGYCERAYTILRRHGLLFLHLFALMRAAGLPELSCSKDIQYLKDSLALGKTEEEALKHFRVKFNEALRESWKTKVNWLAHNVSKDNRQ

[12] = Inhibition of PI3K-delta in rat whole blood assessed as inhibition of anti-IgM/IL4 induced CD86 expression; type: tissue-based

Chain of Phosphatidylinositol 4,5-bisphosphate 3-kinase catalytic subunit gamma isoform (P48736 whole entry, canonical isoform): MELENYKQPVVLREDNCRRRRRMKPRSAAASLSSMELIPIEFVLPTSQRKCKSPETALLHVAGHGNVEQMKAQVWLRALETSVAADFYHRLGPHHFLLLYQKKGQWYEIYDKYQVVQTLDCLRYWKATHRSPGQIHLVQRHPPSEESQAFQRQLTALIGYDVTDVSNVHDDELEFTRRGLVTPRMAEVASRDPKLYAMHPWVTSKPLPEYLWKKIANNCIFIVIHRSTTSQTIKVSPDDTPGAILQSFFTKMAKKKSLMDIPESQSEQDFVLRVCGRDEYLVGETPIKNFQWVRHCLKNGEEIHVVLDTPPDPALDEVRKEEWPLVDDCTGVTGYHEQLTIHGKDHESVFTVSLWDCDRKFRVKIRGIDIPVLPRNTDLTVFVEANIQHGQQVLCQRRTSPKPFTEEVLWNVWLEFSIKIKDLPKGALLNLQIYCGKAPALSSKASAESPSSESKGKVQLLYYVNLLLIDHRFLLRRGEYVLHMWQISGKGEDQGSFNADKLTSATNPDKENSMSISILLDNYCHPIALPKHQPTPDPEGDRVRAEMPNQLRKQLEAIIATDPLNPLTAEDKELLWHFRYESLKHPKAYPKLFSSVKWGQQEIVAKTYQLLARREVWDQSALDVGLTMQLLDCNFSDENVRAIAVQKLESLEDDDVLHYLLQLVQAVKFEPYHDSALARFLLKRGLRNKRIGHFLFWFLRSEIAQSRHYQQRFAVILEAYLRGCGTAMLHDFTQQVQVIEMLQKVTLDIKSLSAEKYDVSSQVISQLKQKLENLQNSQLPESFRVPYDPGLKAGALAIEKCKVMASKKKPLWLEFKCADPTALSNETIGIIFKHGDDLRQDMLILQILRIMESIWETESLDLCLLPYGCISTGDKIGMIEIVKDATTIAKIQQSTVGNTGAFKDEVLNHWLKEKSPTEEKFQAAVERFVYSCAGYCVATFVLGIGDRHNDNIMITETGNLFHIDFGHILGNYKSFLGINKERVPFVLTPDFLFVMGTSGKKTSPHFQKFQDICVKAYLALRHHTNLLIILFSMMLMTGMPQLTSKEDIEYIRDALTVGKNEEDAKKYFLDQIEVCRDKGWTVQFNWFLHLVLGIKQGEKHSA
T3 sequence (P42336 whole entry, canonical isoform): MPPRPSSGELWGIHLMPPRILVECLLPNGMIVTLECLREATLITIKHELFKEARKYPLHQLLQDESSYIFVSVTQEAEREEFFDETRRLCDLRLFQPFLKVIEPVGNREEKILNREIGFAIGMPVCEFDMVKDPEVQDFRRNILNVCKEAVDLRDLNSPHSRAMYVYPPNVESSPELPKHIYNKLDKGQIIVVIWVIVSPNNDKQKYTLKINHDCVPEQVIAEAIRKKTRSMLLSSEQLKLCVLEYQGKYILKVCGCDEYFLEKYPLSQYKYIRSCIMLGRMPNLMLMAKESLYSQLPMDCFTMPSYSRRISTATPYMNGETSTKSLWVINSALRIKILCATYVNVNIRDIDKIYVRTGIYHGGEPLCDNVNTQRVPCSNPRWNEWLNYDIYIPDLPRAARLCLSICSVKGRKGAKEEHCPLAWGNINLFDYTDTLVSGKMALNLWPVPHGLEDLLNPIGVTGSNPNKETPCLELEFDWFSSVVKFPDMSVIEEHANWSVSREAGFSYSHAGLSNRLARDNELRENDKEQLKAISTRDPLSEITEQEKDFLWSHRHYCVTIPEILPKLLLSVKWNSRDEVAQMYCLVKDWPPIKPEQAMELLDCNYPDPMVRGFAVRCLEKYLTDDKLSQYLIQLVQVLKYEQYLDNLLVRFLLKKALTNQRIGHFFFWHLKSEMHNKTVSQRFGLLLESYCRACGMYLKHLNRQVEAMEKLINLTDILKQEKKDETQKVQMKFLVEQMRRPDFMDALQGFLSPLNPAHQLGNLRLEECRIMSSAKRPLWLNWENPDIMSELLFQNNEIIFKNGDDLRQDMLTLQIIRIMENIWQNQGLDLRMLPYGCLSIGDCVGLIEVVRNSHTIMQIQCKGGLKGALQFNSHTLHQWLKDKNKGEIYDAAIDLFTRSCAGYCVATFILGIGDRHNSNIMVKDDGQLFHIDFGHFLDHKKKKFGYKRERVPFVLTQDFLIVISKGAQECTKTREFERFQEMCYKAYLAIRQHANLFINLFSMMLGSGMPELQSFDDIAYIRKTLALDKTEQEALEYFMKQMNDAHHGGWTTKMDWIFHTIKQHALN
T2 sequence (P42338 whole entry, canonical isoform): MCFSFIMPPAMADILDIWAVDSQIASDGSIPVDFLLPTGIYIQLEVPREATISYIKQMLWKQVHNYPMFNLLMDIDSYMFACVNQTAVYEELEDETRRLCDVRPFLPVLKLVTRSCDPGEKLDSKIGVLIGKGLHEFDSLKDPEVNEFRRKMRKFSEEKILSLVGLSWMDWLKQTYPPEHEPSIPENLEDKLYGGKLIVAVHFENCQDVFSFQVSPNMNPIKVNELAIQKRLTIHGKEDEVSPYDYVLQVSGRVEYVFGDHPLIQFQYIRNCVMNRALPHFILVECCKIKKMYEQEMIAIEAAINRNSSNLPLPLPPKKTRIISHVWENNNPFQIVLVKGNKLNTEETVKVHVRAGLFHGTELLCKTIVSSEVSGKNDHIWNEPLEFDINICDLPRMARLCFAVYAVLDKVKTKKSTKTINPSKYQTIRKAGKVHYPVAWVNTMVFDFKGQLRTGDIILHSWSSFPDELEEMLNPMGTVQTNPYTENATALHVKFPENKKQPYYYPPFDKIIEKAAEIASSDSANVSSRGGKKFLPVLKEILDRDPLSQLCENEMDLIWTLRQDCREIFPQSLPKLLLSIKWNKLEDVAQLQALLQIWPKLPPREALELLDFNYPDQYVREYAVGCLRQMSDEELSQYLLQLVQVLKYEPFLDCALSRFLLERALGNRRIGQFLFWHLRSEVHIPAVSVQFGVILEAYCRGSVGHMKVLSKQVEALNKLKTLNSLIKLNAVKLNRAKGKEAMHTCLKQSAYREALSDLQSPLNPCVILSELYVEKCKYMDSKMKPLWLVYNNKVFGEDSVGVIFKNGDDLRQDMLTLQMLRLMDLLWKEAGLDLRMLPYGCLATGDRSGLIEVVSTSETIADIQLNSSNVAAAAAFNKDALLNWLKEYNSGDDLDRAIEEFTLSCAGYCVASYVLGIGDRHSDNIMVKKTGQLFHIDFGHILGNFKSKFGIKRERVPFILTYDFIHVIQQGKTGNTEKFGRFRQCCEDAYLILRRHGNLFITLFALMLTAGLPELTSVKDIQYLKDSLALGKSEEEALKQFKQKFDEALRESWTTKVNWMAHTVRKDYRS

Row | Compound | IC50 [1] [nM] | IC50 [2] [nM] | IC50 [3] [nM] | IC50 [4] [nM] | solubility thermodynamic [5] [µM] | IC50 [6] [nM] | Ratio IC50 [7] | IC50 [8] [nM] | IC50 [9] [nM] | logP [10] | Ratio IC50 (Rat1) | IC50 [11] [nM] | IC50 [12] [nM]
1 | COc1ccc(-c2ccc3ncnc(O[C@H]4CCN(C(C)=O)C4)c3c2)cc1OC | 16 | 304 | 82 | 126 | > 1000 | 210 | 5 | 407 | 194 | 2.6 |  |  | 
2 | COc1ccc(-c2ccc3ncnc(O[C@@H]4CCN(C(C)=O)C4)c3c2)cc1OC | 146 | 1790 |  | 676 | > 1000 |  |  |  | 1230 | 2.4 |  |  | 
3 | CCC(=O)N1CC[C@H](Oc2cnnc3ccc(-c4ccc(OC)nc4)cc23)C1 | 188 | 9010 | 2840 | 5080 | 370 (≈ 140 µg/mL) | > 10000 | 13 | > 10000 | > 9100 | 2.8 |  |  | 
4 | COc1ccc(-c2ccc3ncnc(O[C@H]4CCN(C)C4)c3c2)cc1OC | 130 | 1480 |  | 888 | > 1000 |  |  |  | 1210 | 3.6 |  |  | 
5 | COc1ccc(-c2ccc3ncnc(O[C@H]4CCN(C(=O)OC(C)(C)C)C4)c3c2)cc1OC | 10 | 956 | 44 | 148 | 9 (≈ 4.06 µg/mL) | 262 | 4 | 1520 | 282 | 5.3 |  |  | 
6 | COc1ccc(-c2ccc3ncnc(O[C@@H]4CCN(C(=O)OC(C)(C)C)C4)c3c2)cc1OC | 256 | 3880 |  | 693 | 6 (≈ 2.71 µg/mL) |  |  |  | 642 | 4.9 |  |  | 
7 | CCC(=O)N1CC[C@@H](Oc2cnc3ccc(-c4ccc(OC)c(OC)c4)cc3n2)C1 | 15 | 860 | 72 | 491 | 40 (≈ 16.3 µg/mL) | 1860 | 5 | 2130 | 366 | 3.8 | 4 | 85 | 282
